Measured values reported in article PMC9870775, “Potent Dual Polymerase/Exonuclease Inhibitory Activities of Antioxidant Aminothiadiazoles Against the COVID-19 Omicron Virus: A Promising In Silico/In Vitro Repositioning Research Study” (Molecular Biotechnology, 2023).
“And” between values parts separate entries of the source, which are not always exact repeats. Equal entries are not always repeated. Where two headings read alike, the source gives them in different places.

System: SARS-CoV-2 (Omicron variant, B.1.1.529.1/BA.1 sublineage)
Test: microbe, parasite or virus in culture
Assay type: cell-based
Settings: for EC50 / EC90: Severe acute respiratory syndrome coronavirus 2, Vero C1008, 48 h; for EC90: read-out: 90% Reduction in Infectious Virus (EC90)
[1] = read-out: 50% Reduction in Infectious Virus (EC50)
[2] = read-out: 50% Reduction in Viral RNA Copy (EC50)
[3] = after starting administration and treatment

Structure (SMILES) | 100% CPE Inhibitory Concentration (CPEIC100) | EC50 [1] | EC50 [2] | EC90 | Time to maximal effectiveness against the Omicron-variant particles [3] | Time to maximal effectiveness against the Omicron-variant particles
Nc1nnc(-c2cnc3cc(Cl)ccc3c2O)s1 [ChloViD2022, 3-(5-amino-1,3,4-thiadiazol-2-yl)-7-chloroquinolin-4-ol] | 1.09 µM and 1.09 ± 0.04 µM | 0.41 ± 0.02 µM | 0.44 ± 0.02 µM | 1.53 ± 0.05 µM | 4 to 10 h | 
CC(C)C(=O)OC[C@H]1O[C@@H](n2ccc(NO)nc2=O)[C@H](O)[C@@H]1O [Molnupiravir, molnupiravir, reference compound] | 6.25 µM and 6.25 ± 0.31 µM |  |  | 9.16 ± 0.37 µM |  | 
Nc1nnc([C@H](O)[C@@H](O)c2nnc(N)s2)s1 [Taroxaz-26, (1R,2R)-1,2-bis(5-amino-1,3,4-thiadiazol-2-yl)ethane-1,2-diol] | 1.83 µM and 1.83 ± 0.07 µM | 0.73 ± 0.03 µM | 0.77 ± 0.04 µM | 2.34 ± 0.08 µM | 4 to 10 h | 
Nc1nnc(CC(O)(Cc2nnc(N)s2)c2nnc(N)s2)s1 [CoViTris2022, 1,2,3-tris(5-amino-1,3,4-thiadiazol-2-yl)propan-2-ol] | 1.60 ± 0.06 µM | 0.69 ± 0.03 µM | 0.7 ± 0.04 µM | 2.01 ± 0.07 µM |  | 4 to 10 h
